Here are results for 2 molecules from patent US20140155445A1, “Compounds and Methods for Treating Cancer and Diseases of the Central Nervous System” (Osta Biotechnologies Inc., priority 2007, published 2014).

In data set [1] the test system is HCT-116 colorectal carcinoma. As to the kind of experiment: Colorectal carcinoma model HCT-116 in SCID mice. The data set is classed as in vivo, human. An excerpt:
Control groups received the vehicle alone.

A further data set deals with rat C6 glioma cells. As to the kind of experiment: Cell proliferation, [3H]thymidine incorporation, rat C6 glioma cells. The data set is classed as cell-based. To be noted: 6.5 μM, 18 h, hHO-1-transfected rat C6 glioma cells; hydrochloride. On the procedure:
Rat C6 glioma cells were cultivated in high glucose DMEM supplemented with 10% heat-inactivated fetal bovine serum, […], and penicillin-streptomycin (50 U/mL and 50 μg/mL, respectively). […] All cultures were incubated at 37° C. in humidified 95% air-5% CO2.
Cells were seeded in 24-well plates at 1×10^6 cells/mL/well. Upon reaching >90% confluence, cells in each well were transiently transfected with 1.6 μg of plasmid DNA-Lipofectamine 2000 complex using Lipofectamine 2000 method according to manufacturer instructions (Invitrogen). 1.6 μg of plasmid DNA and 4 μL of Lipofectamine 2000 reagent were diluted individually in 100 μL opti-MEM I and incubated for 5 minutes at room temperature with gentle mixing. […]
Cell proliferation was determined by [^3H]thymidine incorporation: Cells were plated in 24-well plates at 10^6 cells/mL/well in complete medium. […] The cells were trypsinized and collected, air-dried on 21 mm glass microfibre filters (Whatman International Ltd., Maidstone, England) and analyzed by scintillation counting in a Wallac-Liquid Scintillator Counter (Perkin Elmer Life Sciences, Boston, Mass., USA). [^3H]thymidine incorporation was expressed as counts per min (cpm) per mL.
(Uptake of a labelled nucleoside into DNA is a usual measure of proliferation.)

Another data set concerns SKMEL-V+ cells. In words: Melanoma efficacy study of QC-199, SKMEL-V+ cells s.c. in Scid mice. The format is in vivo, human. The note with it: for reduction of tumor volume vs vehicle: 2 cycles. On the procedure:
BD PharMingen, San Diego, Calif.). Cryostat sections were used for CD31 staining. […] Sections were rehydrated in PBS and then blocked with 5% normal goat serum for 1 h. The sections were then incubated overnight at 4° C. with CD31 antibody diluted 1:25 in 3% BSA-PBS. […] Sections were counterstained with Harris' hematoxylin and mounted. Slides were analyzed by conventional light microscopy and photographed using color slides (Eastman Kodak, Rochester, N.Y.). Balb/c Scid mice, 6 week-old, were obtained from Charles River Laboratories, St. Zotique, PQ, Canada. The mice weighed 18-22 g. The experiments were approved by the Animal Care Committee, McGill University, Montreal. The animals were housed in individual cages (4 per cage) and were fed standard rodent chow and water ad libitum. […] When the tumors become palpable (size of a rice), mice weights were measured with a digital balance accurate to 0.05 g. […] For the infusion, mice were anesthetized using isoflurane-based system ([…] COMPACT NRB, 3975-0800-000). For the infusion, a mini pump (NE-1800, New Era Pump Systems, Inc.) was used to infuse the compound via the tail vein during a 2 h period. […] At experiment termination, mice were anesthetized with isoflurane and sacrificed by cervical dislocation. Tumors were dissected and tumor weights were measured using a digital balance.

The nature of data set [2]: Pharmacokinetic evaluation of QC-199 in mouse plasma and brain, IP or oral. To be noted: for half-life: from Lambda z; for AUC: read-out: AUCall (0-12); for Cmax: mouse, male CD-1 mice. The data set is classed as in vivo. On the procedure: Regular male CD1 mice, 6 weeks old, were obtained from Charles River Laboratories, St. Zotique, PQ, Canada. The mice weighed 22-28 g. The experiments were approved by the Animal Care Committee, McGill University, Montreal, Quebec. The animals were housed in individual cages and were fed standard rodent chow and water ad libitum. Mice weights were measured with a digital balance accurate to 0.05 g and then received QC-199 at the indicated doses either orally, or via i.p. injections or following i.v. slow infusion. In the case of i.v. injection or i.v. infusion, mice were anesthetized using isoflurane-based system (DISPOMED, MODUFLEX COMPACT NRB, 3975-0800-000). For the infusion, a mini pump (NE-1800, New Era Pump Systems, Inc.) was used to infuse the compound via the tail vein during a 2 h period. In one study, blood and brain tissue samples were collected at various time points after administration of QC-199 using EDTA tubing (Das Original S-Monovette EDTA KE/1.2 ml lot.9094102 and Needle for S-Monovette 22G lot. 8073401) via cardiac puncture and immediately stored at 4° C. Serum was collected after the samples were centrifuged 2200×, 4° C. for 20 minutes and stored at −80° C. until analysis. For the brain tissue collection, skin of mice was removed and brain was carefully dissected out from the skull, transferred into a Petri dish, briefly washed with ice-cold phosphate-buffered saline (PBS), and immediately stored at −80° C. until further analysis.
The assay of QC-199 in mouse plasma and brain samples was carried out using qualified LC/MS/MS assay methods.

Like-named read-outs stand apart in the source and are kept apart here.

As for `Brc1ccc(CCC2(Cn3ccnc3)OCCO2)cc1.Cl` [QC-56, 1-((2-(2-(4-Bromophenyl)ethyl)-1,3-dioxolan-2-yl)methyl)-1H-imidazole hydrochloride], the mouse mortality entry in data set [1] (60 mg/kg, HCT-116 model (FIG. 25)) is listed as “but not QC-56, induced mortality”. Besides, the “reduction of tumor volume at the time of sacrifice compared to control” value in data set [1] (QC-56 60 mg/kg/ip, 5-FU 60 mg/kg/ip reduced to 40 mg/kg) is listed as “approximately 23%”. In addition, the “effect of hHO-1 transfection on 3H-thymidine incorporation” value with rat C6 glioma cells is “significantly attenuated”.
As for `Brc1ccc(CCCCn2ccnc2)cc1.Cl` [QC-199, 1-[4-(4-bromophenyl)butyl]-1H-imidazole hydrochloride], the “reduction of tumor volume vs vehicle” value in the data set with SKMEL-V+ cells (30 mg/kg i.v. infusion, d1, 3, 5 per cycle) came out at 30%; in the data set with SKMEL-V+ cells (60 mg/kg i.v. infusion, d1, 3, 5 per cycle, p less than 0.05), 52%; in the data set on SKMEL-V+ cells (200 mg/kg i.v. infusion, d1, 5 per cycle, p less than 0.01) it was 69%; with SKMEL-V+ cells (1000 mg/kg i.v. infusion, d1, 5 per cycle, p less than 0.01), 78%. Moreover, the “vascularization of dissected tumors (H&E staining)” value with SKMEL-V+ cells (QC-199 30-1000 mg/kg) is recorded as “dose dependent reduction in vascularization”. In addition, the “% Extrapolated AUC” value in data set [2] (brain, IP 60 mg/kg) is listed as 13%; in data set [2] (brain, Oral 60 mg/kg) it was 37%. The “AUC(0-inf)” value in data set [2] (brain, IP 60 mg/kg) worked out at 427 µg·h/g; in data set [2] (brain, Oral 60 mg/kg), 361 µg·h/g; in data set [2] (male, CD-1, mouse, in vivo, plasma, IP 60 mg/kg, read-out: AUC0-inf), 85000 ng·h/mL; in data set [2] (male, CD-1, mouse, in vivo, plasma, Oral 60 mg/kg, read-out: AUC0-inf), 67000 ng·h/mL. In addition, the “AUCall (0-12)” value is 370 µg·h/g in data set [2] (brain, IP 60 mg/kg) and 227 µg·h/g in data set [2] (brain, Oral 60 mg/kg). Also, in data set [2] (from oral-to-IP AUC ratios in brain and plasma), the oral bioavailability result is “moderately high oral bioavailability”. Also, the concentration at 5 min in data set [2] (male, CD-1, mouse, brain, 60 mg/kg, IP or oral administration, above the upper calibration range, read-out: brain tissue concentration at 5 min post-dose) was greater than 10000 ng/g. Besides, the half-life (as a rule, the time needed for the level to fall by half in the phase considered) in data set [2] (male, CD-1, mouse, in vivo, ip, 60 mg/kg, brain, IP 60 mg/kg) was 258 min; in data set [2] (male, CD-1, mouse, in vivo, ip, 60 mg/kg, plasma, IP 60 mg/kg) it was 288 min; in data set [2] (male, CD-1, mouse, in vivo, po, 60 mg/kg, brain, Oral 60 mg/kg), 516 min; in data set [2] (male, CD-1, mouse, in vivo, po, 60 mg/kg, plasma, Oral 60 mg/kg), 426 min. Moreover, the Tmax (usually the time from dosing to the highest level) was 10 min in data set [2] (male, CD-1, mouse, in vivo, brain, IP 60 mg/kg) and 10 min in data set [2] (male, CD-1, mouse, in vivo, brain, Oral 60 mg/kg). In addition, the AUC in data set [2] (male, CD-1, mouse, in vivo, plasma, IP 60 mg/kg) worked out at 72000 ng·h/mL; in data set [2] (male, CD-1, mouse, in vivo, plasma, Oral 60 mg/kg) it was 47000 ng·h/mL. Further, the Cmax (commonly the highest concentration seen after dosing) stood at 79000 ± 2200 ng/g in data set [2] (in vivo, brain, IP 60 mg/kg); 39000 ± 2700 ng/g in data set [2] (in vivo, brain, Oral 60 mg/kg); 20000 ± 1200 ng/mL in data set [2] (in vivo, plasma, IP 60 mg/kg); 9100 ± 800 ng/mL in data set [2] (in vivo, plasma, Oral 60 mg/kg). Further, the AUC_%Extrap_obs in data set [2] (plasma, IP 60 mg/kg) is recorded as 16%; in data set [2] (plasma, Oral 60 mg/kg) it was 30%.
